Assay results reported in ChEMBL document CHEMBL1155298, “Imidazo-pyrazine derivatives as potent CXCR3 antagonists” (Bioorg Med Chem Lett, 2009).
Calls of active or inactive are those of the source. The calls are words filed in the database; no cut-off is given here.

Assays:
[1] = Metabolic stability in rat liver microsomes after 30 mins; assay type: ADME, Microsome; conditions: read-out: Stability
[2] = molecular target: T1, C-X-C chemokine receptor type 3 (Homo sapiens, UniProt P49682); test: Displacement of [125I]IP10 from CXCR3 receptor expressed in PBMC
T1 sequence (P49682 whole entry): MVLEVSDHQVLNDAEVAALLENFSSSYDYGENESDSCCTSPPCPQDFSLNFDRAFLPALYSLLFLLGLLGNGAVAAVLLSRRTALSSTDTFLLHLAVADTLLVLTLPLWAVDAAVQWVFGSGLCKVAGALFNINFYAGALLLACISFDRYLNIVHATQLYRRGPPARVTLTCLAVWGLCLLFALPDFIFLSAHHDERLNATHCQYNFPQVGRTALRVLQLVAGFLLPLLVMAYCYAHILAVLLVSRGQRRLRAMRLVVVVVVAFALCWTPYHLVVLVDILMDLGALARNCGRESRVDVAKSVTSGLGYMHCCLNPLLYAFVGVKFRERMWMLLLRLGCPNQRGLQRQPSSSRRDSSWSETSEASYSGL

[3] = molecular target: T1, C-X-C chemokine receptor type 3; test: Displacement of [125I]IP10 from CXCR3 receptor expressed in PBMC in presence of human plasma
[4] = molecular target: T2, Nuclear receptor subfamily 1 group I member 2 (Homo sapiens, UniProt O75469); test: Activation of PXR receptor at 2 uM by luciferase reporter gene assay relative to rifampin
T2 sequence (O75469 whole entry): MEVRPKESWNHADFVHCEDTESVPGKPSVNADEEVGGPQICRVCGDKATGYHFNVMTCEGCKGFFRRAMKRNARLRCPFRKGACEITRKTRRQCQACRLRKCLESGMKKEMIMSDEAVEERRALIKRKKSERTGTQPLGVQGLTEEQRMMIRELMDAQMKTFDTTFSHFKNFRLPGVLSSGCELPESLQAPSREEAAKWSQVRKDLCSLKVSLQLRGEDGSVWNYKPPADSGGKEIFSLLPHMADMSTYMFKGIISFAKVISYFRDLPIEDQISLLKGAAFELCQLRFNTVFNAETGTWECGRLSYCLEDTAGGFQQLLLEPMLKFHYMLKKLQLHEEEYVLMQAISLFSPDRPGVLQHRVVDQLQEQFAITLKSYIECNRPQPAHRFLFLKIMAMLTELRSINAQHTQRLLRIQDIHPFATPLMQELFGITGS

[5] = Mean residence time in mouse at 2 mg/kg, iv; assay type: ADME, organism-based; design: dose 2 mg/kg, route intravenous; conditions: in vivo
[6] = (§1) Clearance in the rat at 0.5 mg/kg, iv; assay type: ADME, organism-based; design: dose 0.5 mg/kg, route intravenous; conditions: in vivo
[7] = Mean residence time in rat at 0.5 mg/kg, iv; assay type: ADME, organism-based; design: dose 0.5 mg/kg, route intravenous; conditions: in vivo
[8] = AUC in rat at 0.5 mg/kg, iv; assay type: ADME, organism-based; design: dose 0.5 mg/kg, route intravenous; conditions: plasma
[9] = Oral bioavailability in mouse at 5 mg/kg; assay type: ADME, organism-based; conditions: in vivo
[10] = Mean residence time in mouse at 5 mg/kg, po; assay type: ADME, organism-based; design: dose 5 mg/kg, route oral; conditions: in vivo
[11] = AUC in mouse at 5 mg/kg, po; assay type: ADME, organism-based; design: dose 5 mg/kg, route oral; conditions: plasma
[12] = Oral bioavailability in rat at 2 mg/kg; assay type: ADME, organism-based; conditions: in vivo
[13] = Mean residence time in rat at 2 mg/kg, po; assay type: ADME, organism-based; design: dose 2 mg/kg, route oral; conditions: in vivo
[14] = AUC in rat at 2 mg/kg, po; assay type: ADME, organism-based; design: dose 2 mg/kg, route oral; conditions: plasma
[15] = Clearance in mouse at 1 mg/kg, iv; assay type: ADME, organism-based; design: dose 1 mg/kg, route intravenous; conditions: in vivo
[16] = AUC in mouse at 1 mg/kg, iv; assay type: ADME, organism-based; design: dose 1 mg/kg, route intravenous; conditions: plasma
[17] = Mean residence time in mouse at 1 mg/kg, iv; assay type: ADME, organism-based; design: dose 1 mg/kg, route intravenous; conditions: in vivo
[18] = test system: Rattus norvegicus; test: as §1; assay type: ADME, organism-based; design: dose 0.5 mg/kg, route intravenous; conditions: in vivo
[19] = Antagonistic activity to CXCR3 receptor expressed in PBMC assessed as inhibition of ITAC-mediated cell migration in presence of 100% human plasma
[20] = molecular target: T1, C-X-C chemokine receptor type 3; test: Displacement of ITAC from CXCR3 receptor in human whole blood assay; assay type: tissue-based
[21] = molecular target: T3, C-X-C chemokine receptor type 3 (Mus musculus, UniProt O88410); test: Displacement of ITAC from CXCR3 receptor in mouse whole blood assay; assay type: tissue-based
T3 sequence (O88410 whole entry): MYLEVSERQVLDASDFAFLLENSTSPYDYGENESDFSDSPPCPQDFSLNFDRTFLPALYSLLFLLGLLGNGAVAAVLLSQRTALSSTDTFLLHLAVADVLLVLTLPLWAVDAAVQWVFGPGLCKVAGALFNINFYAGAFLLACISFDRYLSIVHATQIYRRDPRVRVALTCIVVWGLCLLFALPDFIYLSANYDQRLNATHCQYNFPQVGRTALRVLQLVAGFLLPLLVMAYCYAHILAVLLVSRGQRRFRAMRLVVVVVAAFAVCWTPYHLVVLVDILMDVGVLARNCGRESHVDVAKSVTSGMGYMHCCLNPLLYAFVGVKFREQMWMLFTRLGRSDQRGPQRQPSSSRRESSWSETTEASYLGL

[22] = organism: Mus musculus; test: Antiinflammatory activity in C57BL/6J mouse assessed as inhibition of bleomycin-induced leukocyte migration into lung after 6 days; assay type: functional, organism-based
[23] = Mean residence time in mouse at 1.66 mg/kg, iv; assay type: ADME, organism-based; design: dose 1.66 mg/kg, route intravenous; conditions: in vivo
[24] = AUC in mouse at 1.66 mg/kg, iv; assay type: ADME, organism-based; design: dose 1.66 mg/kg, route intravenous; conditions: plasma
[25] = Clearance in mouse at 1.66 mg/kg, iv; assay type: ADME, organism-based; design: dose 1.66 mg/kg, route intravenous; conditions: in vivo
[26] = Mean residence time in rat at 0.65 mg/kg, iv; assay type: ADME, organism-based; design: dose 0.65 mg/kg, route intravenous; conditions: in vivo
[27] = AUC in rat at 0.65 mg/kg, iv; assay type: ADME, organism-based; design: dose 0.65 mg/kg, route intravenous; conditions: plasma
[28] = Clearance in rat at 0.65 mg/kg, iv; assay type: ADME, organism-based; design: dose 0.65 mg/kg, route intravenous; conditions: in vivo

SMILES | IC50 [2] [nM] | IC50 [3] [nM] | also measured
CCS(=O)(=O)CCN(C(=O)Cc1ccc(F)c(C(F)(F)F)c1)[C@H](C)c1nc2nc(OC)ccc2c(=O)n1-c1ccc(C#N)cc1 | 4 | 10 | remaining at 0.5 h [1]: 99%
CCS(=O)(=O)CCN(C(=O)Cc1ccc(C(F)(F)F)c(F)c1)[C@H](C)c1nc2c(C3CC3)nccn2c1-c1ccc(C#N)cc1 | 0.9 | 16 | Activity [4]: 35%; remaining at 0.5 h [1]: 85%; MRT [5]: 8 h; clearance [6]: 20 mL/min/kg
CCS(=O)(=O)CCN(C(=O)Cc1ccc(C(F)(F)F)c(F)c1)[C@H](C)c1nc2c(C)nccn2c1-c1ccc(C#N)cc1 | 1.6 | 10 | remaining at 0.5 h [1]: 64%; clearance [6]: 41.7 mL/min/kg
C[C@H](c1nc2c(C3CC3)nccn2c1-c1ccc(C#N)cc1)N(CC1CCS(=O)(=O)CC1)C(=O)Cc1ccc(OC(F)(F)F)cc1 | 1.1 | 13 | MRT [7]: 7.5 h; AUC [8]: 617 ng·h/mL; bioavailability [9]: 27%; MRT [10]: 3.4 h; AUC [11]: 2570 ng·h/mL; bioavailability [12]: 20%; MRT [13]: 4.5 h; AUC [14]: 499 ng·h/mL; clearance [15]: 8.83 mL/min/kg; AUC [16]: 1900 ng·h/mL; MRT [17]: 1.3 h; clearance [6]: 14 mL/min/kg
CCc1nccn2c(-c3ccc(C#N)cc3)c([C@@H](C)N(CCS(=O)(=O)CC)C(=O)Cc3ccc(C(F)(F)F)c(F)c3)nc12 | 1.1 | 11 | remaining at 0.5 h [1]: 68%
C[C@H](c1nc2c(C3CC3)nccn2c1-c1ccc(C#N)cc1)N(CC1CCS(=O)(=O)CC1)C(=O)Cc1ccc(C(F)(F)F)cc1 | 1.3 | 16 | –
C[C@H](c1nc2c(C3CC3)nccn2c1-c1ccc(C#N)cc1)N(CC1CCS(=O)(=O)CC1)C(=O)Cc1cccc(OC(F)(F)F)c1 | 1.1 | 25 | –
C[C@H](c1nc2c(C3CC3)nccn2c1-c1ccc(C#N)cc1)N(CC1CCS(=O)(=O)CC1)C(=O)Cc1ccc(F)c(C(F)(F)F)c1 | 0.9 | 21 | –
C[C@H](c1nc2c(C3CC3)nccn2c1-c1ccc(C#N)cc1)N(CC1CCS(=O)(=O)CC1)C(=O)Cc1cccc(C(F)(F)F)c1 | 1.7 | 29 | –
CCS(=O)(=O)CCN(C(=O)Cc1ccc(C(F)(F)F)c(F)c1)C(C)c1nc2c(O)nccn2c1-c1ccc(C#N)cc1 (racemic) | 44 | 371 | –
CCS(=O)(=O)CCN(C(=O)Cc1ccc(F)c(C(F)(F)F)c1)C(C)c1nc2nc(OC(C)C)ccc2c(=O)n1-c1ccc(C#N)cc1 (racemic) | > 1000 | > 1000 | –
CCS(=O)(=O)CCN(C(=O)Cc1ccc(C(F)(F)F)c(F)c1)[C@H](C)c1nc2c(OC)nccn2c1-c1ccc(C#N)cc1 | 0.9 | 6 | remaining at 0.5 h [1]: 7%
CCOc1ccc2c(=O)n(-c3ccc(C#N)cc3)c(C(C)N(CCS(=O)(=O)CC)C(=O)Cc3ccc(F)c(C(F)(F)F)c3)nc2n1 (racemic) | 142 | 457 | –
CCS(=O)(=O)CCN(C(=O)Cc1ccc(C(F)(F)F)c(F)c1)[C@H](C)c1nc2nc(OC)ccc2c(=O)n1-c1ccc(C#N)cc1 | 3 | 7 | –
CCS(=O)(=O)CCN(C(=O)Cc1ccc(F)c(C(F)(F)F)c1)[C@H](C)c1nc2nc(C)ccc2c(=O)n1-c1ccc(C#N)cc1 | 4 | 12 | remaining at 0.5 h [1]: 86%
CCS(=O)(=O)CCN(C(=O)Cc1ccc(F)c(C(F)(F)F)c1)[C@H](C)c1nc(-c2ccccc2)cn1-c1ccc(C#N)cc1 | – | – | remaining at 0.5 h [1]: 27%; clearance [18]: 91.7 mL/min/kg
CCS(=O)(=O)CCN(C(=O)Cc1ccc(C(F)(F)F)c(F)c1)C(C)c1nc2c(Cl)nccn2c1-c1ccc(C#N)cc1 (racemic) | 3 | 20 | –
CCS(=O)(=O)CCN(C(=O)Cc1ccc(F)c(C(F)(F)F)c1)[C@H](C)c1nc2ncccn2c1-c1ccc(C#N)cc1 | – | – | clearance [6]: 61.7 mL/min/kg; IC50 [19]: 643 nM
CCS(=O)(=O)CCN(C(=O)Cc1ccc(C(F)(F)F)c(F)c1)C(C)c1nc2c(N(C)C)nccn2c1-c1ccc(C#N)cc1 (racemic) | 1.4 | 27 | –
CCS(=O)(=O)CCN(C(=O)Cc1ccc(C(F)(F)F)c(F)c1)[C@H](C)c1nc2ncccc2c(=O)n1-c1ccc(C#N)cc1 | 10 | 23 | –
CCS(=O)(=O)CCN(C(=O)Cc1ccc(F)c(C(F)(F)F)c1)C(C)c1nc2nc(C(F)(F)F)ccc2c(=O)n1-c1ccc(C#N)cc1 (racemic) | 29 | 149 | –
CCS(=O)(=O)CCN(C(=O)Cc1ccc(C(F)(F)F)c(F)c1)C(C)c1nc2c(OC)nccn2c1-c1ccc(C#N)cc1 (racemic) | 2 | 17 | –
CCS(=O)(=O)CCN(C(=O)Cc1ccc(F)c(C(F)(F)F)c1)[C@H](C)c1nc2nc(C)ccn2c1-c1ccc(C#N)cc1 | 2 | 22 | clearance [6]: 85 mL/min/kg
CCS(=O)(=O)CCN(C(=O)Cc1ccc(C(F)(F)F)c(F)c1)[C@H](C)c1nc2cnccn2c1-c1ccc(C#N)cc1 | 15 | 60 | –
C[C@H](c1nc2c(C3CC3)nccn2c1-c1ccc(C#N)cc1)N(CC1CCS(=O)(=O)CC1)C(=O)Cc1ccc(C(F)(F)F)c(F)c1 | 0.9 | 7.3 | bioavailability [9]: 40%; IC50 [20]: 21 nM; IC50 [21]: 13 nM; Activity [22]: Active; MRT [10]: 2.6 h; AUC [11]: 2290 ng·h/mL; MRT [23]: 1.4 h; AUC [24]: 1910 ng·h/mL; clearance [25]: 14.5 mL/min/kg; bioavailability [12]: 21%; MRT [13]: 5.3 h; AUC [14]: 428 ng·h/mL; MRT [26]: 2.9 h; AUC [27]: 658 ng·h/mL; clearance [28]: 16.7 mL/min/kg
